The results in this text go back to patent US6992105B2, “Dipeptide derivatives” (Novartis AG, priority 2001, dated 2006).

For series [1], the target named is rabbit antibodies that recognize specifically the carboxyl terminal tryptophan of ET-1. The experiment in a line: radioimmunoassay: displacement of [125I]ET-1 binding to anti-ET-1 antibodies. Particulars: mean±SEM, n=3–5. The method, then: Diluted samples (200 μL) obtained from the above enzyme assay are incubated at 4° C. overnight with 25 μL each of [^125I]ET-1 (10,000 cpm/tube) and 1:20,000-fold diluted rabbit antibodies that recognize specifically the carboxyl terminal tryptophan of ET-1. Goat anti-rabbit antibodies coupled to magnetic beads (70 μg) are then added to each tube, and the reaction mixture is further incubated for 30 minutes at room temperature. The beads are pelleted using a magnetic rack. The supernatant is decanted, and the radioactivity in the pellet is counted in a gamma counter. Total and nonspecific binding are measured in the absence of non-radioactive ET-1 and anti-ET antibodies, respectively.
(Displacement assays read how much labelled ligand stays bound in the presence of the test substance.)

In series [2] the target is angiotensin converting enzyme (ACE) (Homo sapiens, UniProt P12821). The series is described as follows: in vitro inhibition of ACE (hippuryl-histidyl-leucine substrate). The format is biochemical. To be noted: ACE in vitro assay. The method, then: In vitro testing is most appropriate for the free carboxylic acids of the invention. The test compound is dissolved in dimethyl sulfoxide, ethanol or 0.25 M sodium bicarbonate solution, and the solution is diluted with buffer to the desired concentration.
The buffer for the ACE assay is 300 mM NaCl, 100 mM KH2PO4 (pH 8.3). The reaction is initiated by the addition of 100 μL of hippuryl-histidyl-leucine (2 mg/mL) to tubes containing enzyme and drug in a volume of 150 μL and tubes are incubated for 30 minutes at 37° C. The reaction is terminated by the addition of 0.75 mL 0.6 N NaOH. 100 μL of freshly prepared O-pthaldehyde solution (2 mg/mL in methanol) is added to the tubes, the contents are mixed and allowed to stand at room temperature. After 10 minutes, 100 μL of 6 N HCl is added. The tubes are centrifuged and the supernatant optical density is read at 360 nm. The results are plotted against drug concentration to determine the IC50, i.e., the drug concentration which gives half the activity of the control sample containing no drug.

Series [3] relates to angiotensin I induced pressor response (ACE). The experiment in a line: inhibition of the angiotensin I induced pressor response in normotensive rats. The format is in vivo, rat. Particulars: 10 mg/kg i.v., conscious normotensive rats. The method, then:
The in vivo test for i.v. administered compounds is performed with male, normotensive rats, which are conscious. A femoral artery and femoral vein are cannulated respectively for direct blood pressure measurement on i.v. administration of angiotensin I and i.v. or p.o. administration of a compound of this invention. After the basal blood pressure is stabilized, pressor responses to 3 or 4 challenges of 300 ng/kg angiotensin I i.v., at 15-minute intervals, are obtained. Such pressure responses are usually again obtained at 15, 30, 60 and 90 minutes, and then every hour up to 6 hours after i.v. or p.o. administration of the compound to be tested, and compared with the initial responses. Any observed decrease of said pressor response is an indication of ACE inhibition.

For the next series, the target named is T1, NEP (EC 3.4.24.11) (Rattus norvegicus, UniProt P07861).
T1 construct: protein (rat kidney cortex membranes prepared by method of Maeda et al., 1983); from tissue; host or cells: rat kidney cortex membranes
T1 sequence (P07861 1-750): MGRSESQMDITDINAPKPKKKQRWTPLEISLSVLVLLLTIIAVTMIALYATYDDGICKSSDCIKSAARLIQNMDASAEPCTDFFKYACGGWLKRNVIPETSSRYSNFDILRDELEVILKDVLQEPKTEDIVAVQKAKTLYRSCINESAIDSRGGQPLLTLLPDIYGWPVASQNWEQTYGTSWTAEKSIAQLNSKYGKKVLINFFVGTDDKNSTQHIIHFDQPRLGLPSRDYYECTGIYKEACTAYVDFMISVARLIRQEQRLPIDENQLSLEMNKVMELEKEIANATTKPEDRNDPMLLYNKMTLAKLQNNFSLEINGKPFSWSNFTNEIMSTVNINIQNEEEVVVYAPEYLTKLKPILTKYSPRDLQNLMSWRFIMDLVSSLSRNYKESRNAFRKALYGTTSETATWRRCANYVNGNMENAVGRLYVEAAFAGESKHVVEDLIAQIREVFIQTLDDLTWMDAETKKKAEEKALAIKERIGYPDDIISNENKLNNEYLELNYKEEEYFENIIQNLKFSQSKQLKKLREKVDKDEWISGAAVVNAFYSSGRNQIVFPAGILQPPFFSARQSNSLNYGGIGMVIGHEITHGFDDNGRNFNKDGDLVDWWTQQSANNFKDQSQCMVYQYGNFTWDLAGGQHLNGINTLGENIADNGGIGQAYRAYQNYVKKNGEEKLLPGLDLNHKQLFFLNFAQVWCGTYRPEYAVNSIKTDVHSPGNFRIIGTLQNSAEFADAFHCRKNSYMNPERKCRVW
The experiment in a line: in vitro inhibition of NEP (GAAP substrate, rat kidney cortex membranes). Type of series: biochemical. To be noted: substrate glutaryl-Ala-Ala-Phe-2-naphthylamide (GAAP). The method, then: The in vitro inhibition of NEP (EC 3.4.24.11) can be determined as follows:
NEP 3.4.24.11 activity is determined by the hydrolysis of the substrate glutaryl-Ala-Ala-Phe-2-naphthylamide (GAAP) using a modified procedure of Orlowski and Wilk (1981). The incubation mixture (total volume 125 μL) contains 4.2 μL of protein (rat kidney cortex membranes prepared by method of Maeda et al., 1983), 50 mM tris buffer, pH 7.4 at 25° C., 500 μM substrate (final concentration), and leucine aminopeptidase M (2.5 μg). The mixture is incubated for 10 minutes at 25° C., and 100 μL of fast garnet (250 μg fast garnet/mL of 10% Tween 20 in 1 M sodium acetate pH 4.2) is added. Enzyme activity is measure spectrophotometrically at […]. One unit of NEP 24.11 activity is defined as 1 nmol of 2-naphthylamine released per minute at 25° C. at pH 7.4. IC50 values are determined, i.e., the concentration of test compound required for 50% inhibition of the release of 2-naphthylamine.
NEP activity can also be determined using ANF as a substrate. ANF degrading activity is determined by measuring the disappearance of rat-ANF (r-ANF) using a 3-minute reverse phase-HPLC separation. An aliquot of the enzyme in 50 mM tris HCl buffer, pH 7.4, is pre-incubated at 37° C. for 2 minutes and the reaction is initiated by the addition of 4 nmol of r-ANF in a total volume of 50 μL. […]

pIC50: −log10 of the molar value. Ends that are not written are not given here.

Sequence of angiotensin converting enzyme (ACE) (P12821 30-1306, species assumed): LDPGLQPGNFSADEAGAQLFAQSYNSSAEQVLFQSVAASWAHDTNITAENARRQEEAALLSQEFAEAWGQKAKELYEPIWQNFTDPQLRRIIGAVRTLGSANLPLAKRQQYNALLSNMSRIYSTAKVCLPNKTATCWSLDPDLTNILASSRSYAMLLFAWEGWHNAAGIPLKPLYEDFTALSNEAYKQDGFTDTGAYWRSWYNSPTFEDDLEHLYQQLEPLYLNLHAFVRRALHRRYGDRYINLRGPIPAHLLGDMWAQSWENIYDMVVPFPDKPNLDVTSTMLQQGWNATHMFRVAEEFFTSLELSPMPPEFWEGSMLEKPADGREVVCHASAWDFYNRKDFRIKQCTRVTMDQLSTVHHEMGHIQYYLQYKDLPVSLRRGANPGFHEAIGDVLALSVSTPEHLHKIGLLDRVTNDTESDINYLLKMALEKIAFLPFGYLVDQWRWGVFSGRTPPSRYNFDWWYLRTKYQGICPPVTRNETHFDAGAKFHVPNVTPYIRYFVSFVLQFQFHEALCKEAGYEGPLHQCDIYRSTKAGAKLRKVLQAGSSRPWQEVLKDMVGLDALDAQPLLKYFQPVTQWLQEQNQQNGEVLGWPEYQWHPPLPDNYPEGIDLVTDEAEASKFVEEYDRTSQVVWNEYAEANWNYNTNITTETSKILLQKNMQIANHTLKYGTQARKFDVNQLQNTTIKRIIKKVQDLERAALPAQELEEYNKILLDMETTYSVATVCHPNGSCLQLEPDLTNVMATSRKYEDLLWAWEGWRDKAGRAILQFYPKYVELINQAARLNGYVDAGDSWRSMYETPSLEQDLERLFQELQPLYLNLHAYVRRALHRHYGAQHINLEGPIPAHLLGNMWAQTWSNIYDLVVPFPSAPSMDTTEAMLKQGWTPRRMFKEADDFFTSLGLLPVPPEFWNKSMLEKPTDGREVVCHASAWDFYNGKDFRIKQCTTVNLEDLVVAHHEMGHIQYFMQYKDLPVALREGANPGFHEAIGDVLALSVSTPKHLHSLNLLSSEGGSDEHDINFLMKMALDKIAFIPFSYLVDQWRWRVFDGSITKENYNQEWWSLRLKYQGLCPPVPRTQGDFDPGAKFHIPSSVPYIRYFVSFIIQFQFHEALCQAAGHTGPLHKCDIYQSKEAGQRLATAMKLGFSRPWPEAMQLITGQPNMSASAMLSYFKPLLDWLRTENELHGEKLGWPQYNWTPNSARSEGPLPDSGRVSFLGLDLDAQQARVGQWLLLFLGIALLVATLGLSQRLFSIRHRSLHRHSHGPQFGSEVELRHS

“big ET-1: human big ET-1, substrate of ECE-1 in the enzyme assay (CSCSSLMDKECVYFCHLDIIWVNTPEHVVPYGLGSPRS; ends and bridges not checked; cysteine pairing not given here; UniProt P05305 53-90, looked up)”: in series [1], the “IC50 for displacement of [125I]ET-1 binding to the antibodies” value is given as 260,000±66,000 fmol.
Turning to `CC(C)[C@H](S)C(=O)NC(C)(C)C(=O)N[C@@H](CCOc1ccc(F)cc1)C(=O)O` [Example 6(g), N-[2-[(S)-2-mercapto-3-methylbutanoylamino]-2-methylpropionyl]-O-(4-fluorophenyl)-L-homoserine], the melting point (usually the temperature of the solid-liquid transition) lay within 127 to 128 °C.
As for “ET-1: endothelin-1, non-radioactive peptide formed from big ET-1 by ECE; standard in the RIA”, the “IC50 for displacement of [125I]ET-1 binding to the antibodies” value in series [1] was 21 ± 2 fmol.
`CC(C)(NC(=O)[C@@H](S)C1CCOCC1)C(=O)N[C@@H](COCc1ccccc1)C(=O)O` [Example 6(j), N-[2-[(S)-2-mercapto-2-(4-tetrahydropyranyl)acetylamino]-2-methylpropionyl]-O-benzyl-L-serine] yielded a melting point of 184 to 189 °C.
Still for that read-out and setting: the same measure for `CC(C)[C@H](S)C(=O)NC(C)(C)C(=O)N[C@@H](COCc1ccc(F)cc1)C(=O)O` [Example 6(f), N-[2-[(S)-2-mercapto-3-methylbutanoylamino]-2-methylpropionyl]-O-(4-fluorobenzyl)-L-serine]: 50 to 54 °C; for `CC(C)[C@H](S)C(=O)NC1(C(=O)N[C@@H](COCc2ccccc2)C(=O)O)CCCC1` [Example 6(b), N-[1-[(S)-2-mercapto-3-methylbutanoylamino]-cyclopentanecarbonyl]-O-benzyl-L-serine]: 132 to 136 °C.
`CCOC(=O)[C@@H](NC(=O)C(C)(C)NC(=O)[C@@H](SC(C)=O)C(C)C)[C@@H](C)OCc1ccccc1` [Example 1(c), N-[2-[(S)-2-acetylthio-3-methylbutanoylamino]-2-methylpropionyl]-O-benzyl-L-threonine ethyl ester] came in with a melting point of 121 to 122 °C.
For `CC(C)[C@H](S)C(=O)NC(C)(C)C(=O)N[C@@H](CSCc1ccccc1)C(=O)O` [Example 6(c), N-[2-[(S)-2-mercapto-3-methylbutanoylamino]-2-methylpropionyl]-S-benzyl-L-cysteine], the melting point fell in the range of 81 to 87 °C.
Same read-out and setting: next, `CCOC(=O)[C@H](COCc1ccccc1)NC(=O)C(C)(C)NC(=O)[C@@H](SC(=O)CN1CCN(C)CC1)C(C)C` [Example 1(q), N-[2-[(S)-2-[(4-methylpiperazino)acetylthio]-3-methylbutanoylamino]-2-methylpropionyl]-O-benzyl-L-serine ethyl ester]: 95 to 96 °C; `CC(C)[C@H](S)C(=O)NC(C)(C)C(=O)N[C@H](C(=O)O)[C@@H](C)OCc1ccccc1` [Example 6(d), N-[2-[(S)-2-mercapto-3-methylbutanoylamino]-2-methylpropionyl]-O-benzyl-L-threonine]: 61 to 64 °C.
As for `CCOC(=O)[C@H](COCc1ccccc1)NC(=O)C(C)(C)NC(=O)[C@@H](SC(=O)Cn1cncn1)C(C)C` [Example 1(p), N-[2-[(S)-2-[(1-(1,2,4)-triazolyl)acetylthio]-3-methylbutanoylamino]-2-methylpropionyl]-O-benzyl-L-serine ethyl ester], the melting point is 106 to 107 °C.
On the same count and under the same terms, the same measure for `CC(C)[C@H](S)C(=O)NC(C)(C)C(=O)N[C@@H](CCOc1cccc(F)c1)C(=O)O` [Example 6(h), N-[2-[(S)-2-mercapto-3-methylbutanoylamino]-2-methylpropionyl]-O-(3-fluorophenyl)-L-homoserine]: 50 to 56 °C.
As for `CC(C)[C@H](S)C(=O)NC(C)(C)C(=O)N[C@@H](COCc1ccccc1)C(=O)O` [Example 6(a), N-[2-[(S)-2-Mercapto-3-methylbutanoylamino]-2-methylpropionyl]-O-benzyl-L-serine], the pIC50 (as a rule, the negative decadic logarithm of the IC50, by convention in mol/L) in series [2] was approximately 7.70; on NEP (EC 3.4.24.11), approximately 8.30. Besides, the “duration of inhibition of the angiotensin I induced pressor response” value in series [3] was 3 h.
Compound `CC(C)(NC(=O)[C@@H](S)C(C)(C)C)C(=O)N[C@@H](COCc1ccccc1)C(=O)O` [Example 6(e), N-[2-[(S)-2-mercapto-3,3-dimethylbutanoylamino]-2-methylpropionyl]-O-benzyl-L-serine] returned a melting point of 128 to 130 °C.
